Experimental data taken from US7932042B1, “Methods and compositions for the treatment of psychotic disorders through the identification of the olanzapine poor response predictor genetic signature” (Suregene, LLC, priority 2010, dated 2011).
Marks after values point to notes of the source that are not given here.

What was measured:
[1] = test system: patients suffering from schizophrenia; assay: CATIE study: change in total PANSS (LOCF) by drug arm, segmented by OPRP genetic signature status; assay type: in vivo, human; parameters: key to Mean difference olanzapine vs. named drug, CATIE unsegemented / Mean difference olanzapine vs. named drug, CATIE OPRP+: difference in change in total PANSS score (LOCF); decrease = better response; conditions: for Mean difference olanzapine vs. named drug, CATIE OPRP+: positive = olanzapine inferior; for DELTA PANSS % (mean change in PANSS score from baseline to LOCF): more negative = greater improvement
Experimental: The CATIE study, a large federally funded clinical trial designed to assess the efficacy of antipsychotics in a real world setting, is a valuable resource for determining the role of genes in baseline psychopathology and drug response (Lieberman et al., 2005; Stroup et al., 2003). […] Additionally, whole genome SNP genotyping was performed for roughly half of the trial participants (Sullivan et al., 2008). Genotype and phenotype data for the CATIE trial were recently made available to qualified researchers through the NIMH Center for Collaborative Genetic Studies on Mental Disorders. The sample consisted of a total of 738 patients. For the present study, the inventors assigned OPRP status to 628 subjects, including 411 subjects of self-reported European ancestry and 217 subjects of self-reported African ancestry. Further details on the patient population are described in the study by Sullivan and coworkers (Sullivan et al., 2008). […] The design of the CATIE study has been described in detail by others (Lieberman et al., 2005; Stroup et al., 2003). […] Instead of entering into Phase II of the trial, subjects who switched from perphenazine entered Phase IB. […] Subjects who failed Phase IB then entered Phase II. A total of 738 subjects consented to provide DNA for genetic study. […] Only retrospective genetic analyses, judged to be exempt from human studies requirements by an IRB, were conducted in the current study. For the genetic analyses presented herein, the inventors combined and evaluated drug response data for both Phase I and Phase IB of the CATIE study. All tested patients were studied using well established clinical endpoints comparing baseline, intermediate, and last observation carried forward (LOCF) for the PANSS scores using CATIE data. LOCF analysis is a commonly used clinical endpoint for clinical trials for neuropsychiatric drugs, with particular changes in PANSS scores being used to indicate clinically significant response (Leucht et al., 2009). Using the clinical data from the CAIE trial, the inventors derived several different metrics used for quantifying response in clinical trials of antipsychotic medications. […] The greater the decrease in PANSS score, the better the clinical response. The most direct measure of clinical response is absolute change in PANSS score. In addition to absolute change, the improvement is often reported as a percentage change from baseline PANSS score. […] To examine the relationship of genotypes to drug response the inventors used the publicly available PLINK software (Purcell et al., 2007; available on the world wide web at pngu.mgh.harvard.edu/purcell/[…] Helix tree (Version 6.4.1; Golden Helix, Bozeman, Mont.). The inventors used Last observation Carry Forward (LOCF) delta PANSS values as a measure of response to antipsychotic treatment. […] The inventors refined the test further by conducting association analysis on using only those subjects that comprised the TT genotype of […]. […] Presence of the TT or TC genotypes of […] in individuals that comprised the TT genotype at […] indicates OPRP positive status. […] As mentioned previously, the mean change in absolute or percent PANSS provides an important measure of efficacy in patients undergoing antipsychotic treatments. Indeed, many pivotal trials in the psychosis field used absolute and/or percentage change in PANSS Score as the primary endpoint (Leucht et al., 2009). […] Therefore, in addition to examining a categorical definition of clinically significant response, the inventors determined the impact of segmentation by OPRP genetic signature status on the quantitative measure of clinical improvement-delta PANSS for LOCF.

[2] = test system: patients suffering from schizophrenia; assay: Diagnostic performance of the OPRP test in the CATIE study for worsening symptoms (Delta PANSS ≧ 0); assay type: in vivo, human
Source text: Several different measures of diagnostic performance can be used for comparing dichotomous outcomes. Two important metrics include percent positive agreement (PPA), a substitute for sensitivity, and percent negative agreement (PNA), a substitute for specificity.

[3] = test system: patients suffering from schizophrenia; conditions: vs first generation antipsychotics; Davis et al. (2003); cited from earlier work
[4] = test system: patients suffering from schizophrenia; conditions: weighted mean difference in PANSS score (absolute); negative = olanzapine superior; cited from earlier work
[5] = test system: patients suffering from schizophrenia; conditions: population not segmented by OPRP status; negative = greater reduction in PANSS; cited from earlier work
[6] = olanzapine-treated OPRP+ group minus named comparator drug OPRP+ group, positive = poorer response to olanzapine
[7] = delta PANSS, negative = olanzapine superior
[8] = olanzapine OPRP positive versus drug OPRP positive

Row | SMILES | Number of individuals with change in total PANSS (LOCF) ≦−10% (responders) ([1]; OPRP Negative) | Number of individuals with change in total PANSS (LOCF) ≧−10% ([1]; OPRP Negative) | Number of individuals with delta PANSS (LOCF) ≦0% ([1]; OPRP Negative) | Number of individuals with delta PANSS (LOCF) ≧0% (worsening symptoms) ([1]; OPRP Negative) | Responders (change in PANSS of ≦−10%) ([1]; OPRP Negative) | Worsening (delta PANSS ≧0%) ([1]; OPRP Negative) | Number of individuals with change in total PANSS (LOCF) ≦−10% (responders) ([1]; OPRP Positive) | Number of individuals with change in total PANSS (LOCF) ≧−10% ([1]; OPRP Positive) | Number of individuals with delta PANSS (LOCF) ≦0% ([1]; OPRP Positive) | Number of individuals with delta PANSS (LOCF) ≧0% (worsening symptoms) ([1]; OPRP Positive) | Responders (change in PANSS of ≦−10%) ([1]; OPRP Positive) | Worsening (delta PANSS ≧0%) ([1]; OPRP Positive) | Mean difference (95% CI) in delta PANSS [1, 6] | Non-Worsen (number of subjects) ([2]; OPRP Positive) | Worsen (number of subjects, Delta PANSS ≧ 0) ([2]; OPRP Positive) | Effect Size vs. FGA [3] | Mean difference olanzapine vs. named drug, CATIE unsegemented [1, 7] | Mean difference olanzapine vs. named drug, CATIE OPRP+ ([1]; delta PANSS) | Mean difference olanzapine vs. named drug, Meta-analysis [4] | Effect Size vs. Placebo [5] | further results
1 | OCCN1CCN(CCCN2c3ccccc3Sc3ccc(Cl)cc32)CC1 [Perphenazine] | 39 | 71 | 65 | 45 | 35%^+ | 41%^+++ | 5 | 7 | 9 | 3 | 42%^^ | 25%^ | 12 (2.0 to 22.0) | 9 | 3 |  |  |  |  |  | 
2 | O=C1Cc2cc(CCN3CCN(c4nsc5ccccc45)CC3)c(Cl)cc2N1 [Ziprasidone] | 16 | 53 | 35 | 34 | 23%^++++ | 49%^++++ | 2 | 9 | 7 | 4 | 18% | 36% | 4.8 (−2.7 to 12.3) | 7 | 4 | −0.04 | −4.9 | 4.8 | −8.3 | −0.48 | CATIE Effect Size [1, 8]: 0.2^b
3 | OCCOCCN1CCN(C2=Nc3ccccc3Sc3ccccc32)CC1 [Quetiapine] | 48 | 99 | 95 | 62 | 33%^+++ | 42%^+++ | 4 | 14 | 9 | 9 | 22% | 50% | 5.5 (−4.1 to 15.0) | 9 | 9 | 0.01 | −6.2 | 5.5 | −3.7 | −0.42 | Mean difference olanzapine vs. named drug, CATIE OPRP− [1, 7]: −8.4; CATIE Effect Size [1, 8]: 0.3^b
4 | Cc1cc2c(s1)Nc1ccccc1N=C2N1CCN(C)CC1 [Olanzapine] | 73 | 66 | 113 | 26 | 53%^* | 19%^* | 1 | 25 | 8 | 18 | 4% | 69% |  | 8 | 18 |  |  |  |  |  | DELTA PANSS % (mean change in PANSS score from baseline to LOCF) ([1]; OPRP Negative subjects): −11.6%; DELTA PANSS % (mean change in PANSS score from baseline to LOCF) ([1]; OPRP Positive subjects): 4.3%; DELTA PANSS % (mean change in PANSS score from baseline to LOCF) ([1]; OPRP Positive subjects, listed as olanzapine): +4.3%; CATIE Effect Size ([1]; olanzapine OPRP positive versus olanzapine OPRP negative): 1.0^a; CATIE Effect Size ([1]; olanzapine OPRP positive versus olanzapine OPRP negative, listed as olanzapine): 1.0; Mean difference (95% CI) in delta PANSS ([1]; olanzapine OPRP+ minus olanzapine OPRP−): 15.9 (9.7 to 22.1); Effect size (mean difference / standard deviation) ([1]; olanzapine OPRP+ vs olanzapine OPRP−): 1.0; Non-Worsen (number of subjects) ([2]; OPRP Negative): 113; Worsen (number of subjects, Delta PANSS ≧ 0) ([2]; OPRP Negative): 26
5 | Cc1nc2n(c(=O)c1CCN1CCC(c3noc4cc(F)ccc34)CC1)CCCC2 [Risperidone] |  |  |  |  |  |  |  |  |  |  |  |  |  | 13 | 7 | −0.25 |  |  | −1.9 | −0.59 | 
